In US20140309295A1, “ANTIEPILEPTIC, HYPOCHOLESTEROLEMIC AND NEUROPROTECTIVE COMPOUND” (NEURON BIOPHARMA, S.A., priority 2009, published 2014):

Key:
[1] = tested on: C57BL6 mice treated with Triton 1339 (Tyloxapol); assay: Hypocholesterolemic effect in induced hyperlipidemia model (Triton 1339); type: in vivo; conditions: 50 mg/kg i.p.
Procedure: In order to conduct the experiment on the fasting animals, blood was extracted by ocular puncture. The plasma was obtained from said blood, in which plasma total cholesterol levels and levels of its fractions were determined prior to administration of the substances under study. […] After thirty minutes, the animals were intraperitoneally inoculated with 50 mg/kg of each of the test compounds. Seven animals were treated with the vehicle alone and were considered the control group. […] Finally, a third group of seven mice received 50 mg/Kg of NST0037. Twenty-four hours after the treatments, blood was again extracted from the fasting animals and the plasma was obtained from said blood.

[2] = tested on: human neuroblastoma SK-N-MC cells; assay: Protection against neuronal death induced by oxidative stress (xanthine/xanthine oxidase), WST-1; type: cell-based
Procedure: The assay was performed on human neuroblastoma SK-N-MC cells in culture from the American Type Culture Collection (ATCC), in all cases strict rules of sterility were followed and the manipulation was performed in class II biological safety cabinets following European standard EN 12469. The cells were maintained in the following culture medium: Minimum Essential Medium Eagle (MEM) supplemented with 1 mM sodium pyruvate, 2 mM L-glutamine, 0.1 mM non-essential amino acids, 0.05 mg/ml gentamicin and 10% fetal bovine serum.
The inhibition caused by compound NST0037 of cell death caused by treatment with xanthine/xanthine oxidase which generates oxidative damage (causes free radicals such as hydrogen peroxide, superoxide anion, hydroxyl radical), which triggers cell death, was analyzed. These cells, not exceeding 15 passages, were seeded on 96-well plates treated for adherent cells with a cell concentration of 5×10^4 cells/well; 3 wells of the plate were seeded for each condition of the assay.
After 24 hours of cell incubation at 37° C. and 5% CO2, the cell treatments were performed with 100 μl of total volume for the following conditions: • Control: culture medium (medium) • Xanthine/xanthine oxidase (XXO): medium plus 10 μM xanthine/60 mU/mL xanthine oxidase, causing the death of 50% of the cells. • XXO plus NST0037: medium plus XXO (10 μM/60 mU/mL) plus NST0037 at 1, 4, 10, 20, 40 or 100 μM.
The cells were incubated (at 37° C. and 5% CO2) with these treatments for 22 hours, after which time the WST-1 reagent (Roche) was added. The Test WST-1 is based on the measurement of metabolic activity. Cell damage causes the loss of the ability of cells to obtain the energy necessary to maintain their metabolic functions and cell growth, therefore the metabolically active (live) cells reduce tetrazolium salt to formazan by means of the succinate-tetrazolium reductase system (of the mitochondrial respiratory chain). The formazan which is formed can be detected colorimetrically since it has an absorbance of 440 nm. The reading was taken in a plate reader at 440 nm 2 hours after adding the reagent.
The assay was performed on human neuroblastoma SK-N-MC cells in culture from the American Type Culture Collection (ATCC), in all cases strict rules of sterility were followed and the manipulation was performed in class II biological safety cabinets following European standard EN 12469. […]
The effect of mevalonate on the protection caused by compound NST0037 against cell death caused by the treatment with xanthine/xanthine oxidase generating oxidative damage and cell death was analyzed. […]

[3] = tested on: ApoB100 mice; assay: Hypocholesterolemic effect in endogenous hyperlipidemia model, single i.p. dose; type: in vivo; conditions: 50 mg/kg i.p., 12 hours
Procedure: All the animals included for the experimental process were 46-week old males of the ApoB100 strain, which strain has a deficiency in removing cholesterol from the blood which causes an abnormally high increase of plasma cholesterol. The experiments were conducted strictly following the Guidance on the Operation of Animals (Scientific Procedures, Act. 1986). The animals had their respective quarantine period and were treated with maximum precaution to minimize possible contaminations for inoculations and handling.
In order to conduct the experiment on the fasting animals, blood was extracted by ocular puncture. The plasma was obtained from said blood, in which plasma total cholesterol levels and levels of its fractions were determined prior to administration of the substances under study. Immediately after that, the animals were intraperitoneally inoculated with 50 mg/kg of each of the test compounds. Four animals were treated with the vehicle and were considered the control group. […] Finally, a third group of five mice received 50 mg/Kg of NST0037. Twelve hours after the treatments, blood was again extracted from the fasting animals and the plasma was obtained from said blood.

CCC(CC)C(=O)O[C@H]1C[C@@H](C)C=C2C=C[C@H](C)[C@H](CC[C@@H]3C[C@@H](O)CC(=O)O3)[C@H]21 [NST0037, (1S,2S,6R,8S,8aR)-1,2,6,7,8,8a-hexahydro-3,7-dimethyl-8-[2-[(2R,4R)-tetrahydro-4-hydroxy-6-oxo-2H-pyran-2-yl]ethyl]-1-naphthalenyl-2-ethyl-butyrate] was tested, and the HDL-c levels ([1]; 24 hours after Triton 1339) was “not being changed”, the LDL-c levels ([1]; 24 hours after Triton 1339) was “reduction being statistically significant” and the VLDL-c levels ([1]; 24 hours after Triton 1339) was “Only simvastatin reduced”. The “esterified cholesterol (EC) levels” value ([1]; 24 hours after Triton 1339) was “reduced”, the “free cholesterol (FC) levels” value ([1]; 24 hours after Triton 1339) was “reduced the levels of this fraction in a similar manner” and the total cholesterol increase ([1]; 24 hours after Triton 1339 500 mg/kg) was “hypocholesterolemic effect, being statistically significant”. For the same compound, the “maximum protection against death caused by XXO” value ([2]; 20 μM NST0037, 10 μM xanthine/60 mU/mL xanthine oxidase, 22 h) was 78%, the “protection against death caused by XXO” value ([2]; 40 μM NST0037 (Example 14)) was 57% and the HDL-c levels [3] was “without changing”. The LDL-c levels [3] was “considerably reduced”, the VLDL-c levels [3] was “considerably reduced” and the “esterified cholesterol (EC) levels” value [3] was “reduced the EC levels in a similar manner”. The “free cholesterol (FC) levels” value [3] was “without changing FC levels” and the “plasma total cholesterol levels” value ([3]; male ApoB100 mice) was “significant hypocholesterolemic effect”.
